The values below come from patent US20240390902A1, “METHODS AND SYSTEMS FOR SORTING BIOLOGICAL PARTICLES” (Newomics Inc., priority 2017, published 2024).

Data set [1] concerns human mesenchymal stem cells (hMSCs). As to the method:
Senescent cell model and staining. hMSCs or mMSCs senescence was induced chemically using hydrogen peroxide or using X-ray radiation. The medium containing hydrogen peroxide (H2O2) was prepared by diluting 30% H2O2 solution (H1009, Sigma, USA) with MSCs culture medium to desired concentrations. For the H2O2 treatment experiments, the MSCs were cultured in the medium containing H2O2 at 37° C. for 3 hours. After that, the MSCs were washed with 1×DPBS 2 times and cultured in the fresh media for a variable number of days before analysis. For X-ray radiation treatment, MSCs were placed on a rotating table and exposed to 1 gray (Gy), 4 Gy, or 6 Gy radiation. After treatment, cells were cultured for a variable number of days before analysis. The senescent cells were identified by the senescence detection kit (K320, BioVision, USA), which targets senescence-associated β-galactosidase (SA-β-gal) activity, following the manufacturer's provided protocol. […] For the experiments using the mixture of basal and H2O2-treated hMSCs, the H2O2-treated hMSCs were stained with cell tracker (C34551, CellTracker™ orange CMRA Dye™ dye, ThermoFisher Scientific, USA), while basal hMSCs were stained with Hoechst for 10 minutes to differentiate two cell populations.
Cellular senescence induction of human MSCs. Hydrogen peroxide (H2O2) was used to induce cellular senescence of human MSCs. We tested three H2O2 concentrations: 100, 200, and 300 μM. Concentrated H2O2 (100×) was prepared and was added to hMSC culture media using a 1 to 100 dilution, after which, hMSCs were cultured in H2O2 contained medium in a 37° C. incubator for three hours. After H2O2 treatment, the H2O2 contained medium was withdrawn and the culture wells were washed with DPBS two times. Fresh culture medium was then added to cells for 1, 4, and 7 days post-culture. hMSCs were detached using Trypsin/EDTA, then labeled with a senescence detection kit in a 37° C. incubator overnight following the manufacturer's recommended protocol (K320, BioVision, USA). The senescence kit targets senescence-associated β-galactosidase (SA-β-gal) activity within cells. The SA-β gal^+ cells and total cells were counted to estimate the senescence cell ratio. […] For the experiment to mix basal hMSCs with H2O2 treated hMSCs, the basal hMSCs followed the same culture protocol, but without H2O2 treatment.

The test system is the same in data set [2]. The settings on record: 300 μM H2O2, 3 hours (FIG. 19B).
Procedure: Cell culture and staining. Human mesenchymal stem cells (MSCs) were derived from a person and purchased from Lonza (Lonza, 0000471980). […] Cells were cultured in a humidified incubator (Symphony 5.3A CO2 incubator, VWR, USA) at 37° C. with 5% CO2. MSCs basal medium (PT-3238, Lonza) with MSCGM™ SingleQuots supplement kit (PT-4105, Lonza) was used for hMSC culture, and MesenCult™ Expansion kit (5513, [sequence] Technologies, Canada) was used for mMSC culture. Both media were supplemented with 1% penicillin-streptomycin (15140122, ThermoFisher Scientific, USA) to prevent cell contamination during culture. Basal MSCs were stained with either Hoechst (Hoechst 33342, H3570, ThermoFisher Scientific, USA) for 10 minutes or cell tracker (C2102, CellTracker™ green BODIPY™ dye, ThermoFisher Scientific, USA) for 15 minutes. In all cases, adhesive cells were detached using Trypsin/EDTA (CC3232, Lonza) at 37° C. for 10 minutes. The size of trypsinized cells was measured by the analytical tool provided in the Olympus cellSens Dimension software.
For data set [3], the system named is mouse mesenchymal stem cells (mMSCs).
Procedure: Mouse mesenchymal stem cells (MSCs) were purchased from Cyagen (Strain C57BL/6 Mouse Mesenchymal Stem Cells, MUBMX-01001, Cyagen, USA). Cells were cultured in a humidified incubator (Symphony 5.3A CO2 incubator, VWR, USA) at 37° C. with 5% CO2. MSCs basal medium (PT-3238, Lonza) with MSCGM™ SingleQuots supplement kit (PT-4105, Lonza) was used for hMSC culture, and MesenCult™ Expansion kit (5513, [sequence] Technologies, Canada) was used for mMSC culture. Both media were supplemented with 1% penicillin-streptomycin (15140122, ThermoFisher Scientific, USA) to prevent cell contamination during culture. Basal MSCs were stained with either Hoechst (Hoechst 33342, H3570, ThermoFisher Scientific, USA) for 10 minutes or cell tracker (C2102, CellTracker™ green BODIPY™ dye, ThermoFisher Scientific, USA) for 15 minutes. In all cases, adhesive cells were detached using Trypsin/EDTA (CC3232, Lonza) at 37° C. for 10 minutes. The size of trypsinized cells was measured by the analytical tool provided in the Olympus cellSens Dimension software.
Data set [4] has the same test system. The settings on record: 150 μM H2O2; each timepoint including 24 hours after treatment.
Procedure: Cellular senescence induction of mouse MSCs. […] At each timepoint, mMSCs were labeled with a senescence detection kit in a 37° C. incubator overnight. The senescence cell ratio was calculated by dividing the SA-β gal^+ cells over the total number of cells counted.
Data set [5] concerns human mesenchymal stem cells (hMSCs). The experiment in a line: Necrosis of human MSCs (apoptosis kit, annexin V-FITC / SYTOX green). The settings on record: for necrotic cell percentage of hMSCs: 300 μM H2O2 treated.
Setting [6] is: 300 μM H2O2 treated hMSCs, cultured 7 days, stored at 4° C. another 2 days (FIG. 19B).
The mark [7] stands for this setting: 150 μM H2O2 for three hours, after culturing for 1 day.

Structures are written as SMILES. Several values for one entry are separate records, joined by “and”; a condition that tells them apart may be missing. Equal entries are not always repeated. Where two headings read alike, the source gives them in different places.

For the molecule `OO` [H2O2, hydrogen peroxide], in data set [1] (300 μM H2O2 for 3 hours, 1 day post-treatment), the “percentage of senescent hMSCs” value came to 9.9%. For the same molecule, the “percentage of senescent hMSCs” value in data set [1] (300 μM H2O2 for 3 hours, 3 days post-treatment) was 16.5%. The “percentage of senescent hMSCs (senescence ratio)” value in data set [1] (300 μM H2O2 for 3 hours, 7 days post-treatment) was ~50% and 57.7%. Also, the “percentage of senescent cells” value in data set [1] (setting [6]) is listed as 51.7%. Besides, the “size of hMSCs” value in data set [2] was 29.4+/−3.2 μm. In data set [3] (setting [7]), the “increase of size compared to basal mMSCs” value is 3.5 μm and the “size of mMSCs” value was 16.8+/−2.5 μm. In addition, the “purity of cells >15 μm” value in data set [3] (H2O2 (150 μM) treated mMSCs, sample input) turned out to be 43.5%. In addition, the “senescence ratio of mMSCs versus cells without H2O2 treatment” value in data set [4] is reported as “higher”. Also, in data set [5] (setting [6]), the “percentage of necrotic cells” value came to 37% and the “percentage of viable cells” value is 11.3%. Further, in data set [5] (before storage at 4° C.), the “necrotic cell percentage of hMSCs” value was determined as 25%. The “necrotic cell percentage of hMSCs” value in data set [5] (stored at 4° C. refrigerator for 2 days) was 56%.
